Results taken from patent EP0745595A1, “3-(3-Aryloxyphenyl)-1-(substituted methyl)-s-triazine-2,4,6-oxo or thiotrione herbicidal agents” (American Cyanamid Company, priority 1995, dated 1996).

Columns and labels:
Format in all cases: in vivo
[1] = system: ABUTILON THEOPHRASTI, MEDIC.; experiment: Postemergence herbicidal evaluation, ABUTH (Velvetleaf); conditions: for ABUTH, herbicide rating (0-9): rated four to five weeks after treatment, averaged
In short: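 Velvetleaf (Abutilon theophrasti) seedlings were raised in jiffy flats for about two weeks and then sprayed postemergence. The test compound was dispersed in a 50/50 acetone/water mixture containing 0.5% TWEEN®20 and applied through a nozzle operating at 40 psi. Plants were kept on greenhouse benches and rated 0-9 four to five weeks after treatment.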

[2] = system: AMBROSIA ARTEMISIIFOLIA, L.; experiment: Postemergence herbicidal evaluation, AMBEL (Ragweed, Common); conditions: for AMBEL, herbicide rating (0-9): rated four to five weeks after treatment, averaged
In short: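 Common ragweed (Ambrosia artemisiifolia) seedlings were raised in jiffy flats for roughly two weeks, then sprayed postemergence through a nozzle at 40 psi with the test compound dispersed in 50/50 acetone/water carrying 0.5% TWEEN®20. The plants were kept on greenhouse benches under conventional care. Four to five weeks later, injury was rated visually on a 0-9 scale, and repeat tests were averaged.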

CHENOPODIUM ALBUM, L. [3] = experiment: Postemergence herbicidal evaluation, CHEAL (Lambsquarters, Common); conditions: for CHEAL, herbicide rating (0-9): rated four to five weeks after treatment, averaged
In short: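 Seedlings of common lambsquarters (Chenopodium album) were raised in jiffy flats for roughly two weeks, then sprayed postemergence through a nozzle at 40 psi with test compound dispersed in 50/50 acetone/water containing 0.5% TWEEN®20 surfactant. Plants were kept on greenhouse benches under standard care and rated visually on a 0-9 scale versus controls.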

IPOMOEA SPP. = experiment: Postemergence herbicidal evaluation, IPOSS (Morningglory spp.); conditions: rated four to five weeks after treatment, averaged
In short: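 Seedlings of morningglory (Ipomoea spp.) were raised in jiffy flats for roughly two weeks. They were then sprayed postemergence through a nozzle at 40 psi with test compound dispersed in 50/50 acetone/water containing 0.5% TWEEN®20 surfactant. Plants were kept on greenhouse benches under standard care and visually rated 0-9 against controls four to five weeks after treatment.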

CHENOPODIUM ALBUM, L. [4] = experiment: Preemergence herbicidal evaluation, CHEAL (Lambsquarters, Common); conditions: for CHEAL rating: four to five weeks after treatment; for CHEAL herbicidal rating: rated four to five weeks after treatment
In short: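 Preemergence, greenhouse: seed + potting soil sown on ~1 inch soil in cups; aqueous acetone spray, ~0.125–0.50 kg/ha equivalent; rated 0-9 vs control at 4–5 wk.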

[5] = system: ORYZA SATIVA, L. TEBONNET; experiment: Rice tolerance to post-transplant applications under flooded paddy conditions, ORYSAT (Rice, Tebonnet); conditions: post-transplant rice; for ORYSAT herbicidal rating (rice tolerance): rated three to four weeks after treatment; for Herbicidal effect rating, ORYSAT: 0.500 kg/ha, 3-4 weeks after treatment;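 as to ORYSAT herbicidal rating (rice tolerance): applied to flooded soil surface three days after transplanting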
In short: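 Post-transplant paddy test: compound applied 3 d after transplanting to flooded soil (1.5-3 cm water), ~0.063-0.5 kg/ha a.i., 50/50 aq/acetone. Silt loam, 2 × 10-d seedlings/pot. Greenhouse 3-4 wk, visual 0-9 score vs control.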

CASSIA OBTUSIFOLIA, L. = experiment: Postemergence herbicidal evaluation, CASOB (Sicklepod); design: key to CASOB rating / Herbicidal effect rating, CASOB / CASOB: 0-9 visual rating scale vs untreated control
In short: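 Seedlings about two weeks old were sprayed with compound in 50/50 acetone/water containing 0.5% Tween 20 at about 0.125-0.500 kg/ha and kept in the greenhouse. Visual injury was rated on a 0-9 scale versus control 4-5 weeks after treatment; repeat tests were averaged.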

[6] = system: ECHINOCHLOA CRUS-GALLI, (L) BEAU; experiment: Postemergence herbicidal evaluation, ECHCG (Barnyardgrass); design: key to ECHCG rating / Herbicidal effect rating, ECHCG / ECHCG: 0-9 visual rating scale vs untreated control
In short: (§1)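 Greenhouse postemergence test. Seedlings (~2 wk) sprayed at 40 psi; dose ~0.125–0.500 kg/ha in acetone/water (1:1), 0.5% TWEEN 20. Scored 0–9 at 4–5 wk.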

[7] = system: SETARIA VIRIDIS, (L) BEAU; experiment: Postemergence herbicidal evaluation, SETVI (Foxtail, Green); design: key to SETVI rating / Herbicidal effect rating, SETVI / SETVI: 0-9 visual rating scale vs untreated control
In short: as §1

[8] = system: TRITICUM AESTIVUM, CV. APOLLO; experiment: Postemergence herbicidal evaluation, TRZAWO (Wheat, Winter, CV. APOLLO)
Experimental: In the tests, seedling plants are grown in jiffy flats for about two weeks. The test compounds are dispersed in 50/50 acetone/water mixtures containing 0.5% TWEEN®20, a polyoxyethylene sorbitan monolaurate surfactant of Atlas Chemical Industries, […] through a spray nozzle operating at 40 psi for a predetermined time. After spraying, the plants are placed on greenhouse benches and are cared for in the usual manner, commensurate with conventional greenhouse practices. From four to five weeks after treatment, the seedling plants are examined and rated according to the rating system set forth below. Where more than one test is involved for a given compound, the data are averaged.
(§2) Plant species employed in these evaluations are reported by header abbreviation, common name and scientific name.
(§3) Results of herbicide evaluation are expressed on a rating scale (0-9). The scale is based upon a visual observation of plant stand, vigor, malformation, size, chlorosis and overall plant appearance as compared with a control.

ZEA MAYS L. = experiment: Postemergence herbicidal evaluation, ZEAMX (Corn, Field)
Experimental: In the tests, seedling plants are grown in jiffy flats for about two weeks. The test compounds are dispersed in 50/50 acetone/water mixtures containing 0.5% TWEEN®20, a polyoxyethylene sorbitan monolaurate surfactant of Atlas Chemical Industries, […] to the plants through a spray nozzle operating at 40 psi for a predetermined time. After spraying, the plants are placed on greenhouse benches and are cared for in the usual manner, commensurate with conventional greenhouse practices. From four to five weeks after treatment, the seedling plants are examined and rated according to the rating system set forth below. Where more than one test is involved for a given compound, the data are averaged.
as §2, §3

SMILES: COC(=O)Cn1c(=O)[nH]c(=O)n(-c2cc(Oc3ccc(C(F)(F)F)cc3Cl)ccc2[N+](=O)[O-])c1=O [Compound 8, Methyl 3-{5-[(2-chloro-α,α,α-trifluoro-p-tolyl)oxy]-2-nitrophenyl}tetrahydro-2,4,6-trioxo-s-triazine-1(2H)-acetate]
- ABUTH, herbicide rating (0-9) ([1]; Rate 0.125 kg/ha): 9.0
- ABUTH, herbicide rating (0-9) ([1]; Rate 0.250 kg/ha): 9.0
- ABUTH, herbicide rating (0-9) ([1]; Rate 0.500 kg/ha): 9.0
- AMBEL, herbicide rating (0-9) ([2]; Rate 0.125 kg/ha): 9.0
- AMBEL, herbicide rating (0-9) ([2]; Rate 0.250 kg/ha): 9.0
- AMBEL, herbicide rating (0-9) ([2]; Rate 0.500 kg/ha): 9.0
- CHEAL, herbicide rating (0-9) (CHENOPODIUM ALBUM, L. [3]; Rate 0.125 kg/ha): 9.0
- CHEAL, herbicide rating (0-9) (CHENOPODIUM ALBUM, L. [3]; Rate 0.250 kg/ha): 9.0
- CHEAL, herbicide rating (0-9) (CHENOPODIUM ALBUM, L. [3]; Rate 0.500 kg/ha): 9.0
- IPOSS, herbicide rating (0-9) (IPOMOEA SPP.; Rate 0.125 kg/ha): 9.0
- IPOSS, herbicide rating (0-9) (IPOMOEA SPP.; Rate 0.250 kg/ha): 9.0
- IPOSS, herbicide rating (0-9) (IPOMOEA SPP.; Rate 0.500 kg/ha): 9.0
- CHEAL rating (CHENOPODIUM ALBUM, L. [4]; Rate 0.125 kg/ha): 9.0
- CHEAL rating (CHENOPODIUM ALBUM, L. [4]; Rate 0.250 kg/ha): 9.0
- CHEAL rating (CHENOPODIUM ALBUM, L. [4]; Rate 0.500 kg/ha): 9.0
- ORYSAT herbicidal rating (rice tolerance) ([5]; Rate 0.063 kg/ha): 0.0
- ORYSAT herbicidal rating (rice tolerance) ([5]; Rate 0.125 kg/ha): 0.0
- ORYSAT herbicidal rating (rice tolerance) ([5]; Rate 0.250 kg/ha): 1.0
- ORYSAT herbicidal rating (rice tolerance) ([5]; Rate 0.500 kg/ha): 2.0

SMILES: COC(=O)Cn1c(=O)n(C)c(=O)n(-c2cc(Oc3cc(Cl)cc(Cl)c3)ccc2[N+](=O)[O-])c1=O [Compound 35, Methyl 3-[5-(3,5-dichlorophenoxy)-2-nitrophenyl]tetrahydro-5-methyl-2,4,6-trioxo-s-triazine-1(2H)-acetate]
- ABUTH rating ([1]; Rate 0.125 kg/ha): 0.0
- ABUTH rating ([1]; Rate 0.250 kg/ha): 0.0
- ABUTH rating ([1]; Rate 0.500 kg/ha): 0.0
- AMBEL rating ([2]; Rate 0.125 kg/ha): 0.0
- AMBEL rating ([2]; Rate 0.250 kg/ha): 0.0
- AMBEL rating ([2]; Rate 0.500 kg/ha): 0.0
- CASOB rating (CASSIA OBTUSIFOLIA, L.; Rate 0.125 kg/ha): 0.0
- CASOB rating (CASSIA OBTUSIFOLIA, L.; Rate 0.250 kg/ha): 0.0
- CASOB rating (CASSIA OBTUSIFOLIA, L.; Rate 0.500 kg/ha): 0.0
- CHEAL rating (CHENOPODIUM ALBUM, L. [3]; Rate 0.125 kg/ha): 0.0
- CHEAL rating (CHENOPODIUM ALBUM, L. [3]; Rate 0.250 kg/ha): 0.0
- CHEAL rating (CHENOPODIUM ALBUM, L. [3]; Rate 0.500 kg/ha): 0.0
- ECHCG rating ([6]; Rate 0.125 kg/ha): 0.0
- ECHCG rating ([6]; Rate 0.250 kg/ha): 0.0
- ECHCG rating ([6]; Rate 0.500 kg/ha): 0.0
- SETVI rating ([7]; Rate 0.125 kg/ha): 0.0
- SETVI rating ([7]; Rate 0.250 kg/ha): 0.0
- SETVI rating ([7]; Rate 0.500 kg/ha): 0.0
- TRZAWO rating ([8]; Rate 0.125 kg/ha): 0.0
- TRZAWO rating ([8]; Rate 0.250 kg/ha): 0.0
- TRZAWO rating ([8]; Rate 0.500 kg/ha): 0.0
- ZEAMX rating (ZEA MAYS L.; Rate 0.125 kg/ha): 1.0
- ZEAMX rating (ZEA MAYS L.; Rate 0.250 kg/ha): 1.0
- ZEAMX rating (ZEA MAYS L.; Rate 0.500 kg/ha): 1.0
- CHEAL herbicidal rating (CHENOPODIUM ALBUM, L. [4]; Rate 0.500 kg/ha): 0.0
- Herbicidal effect rating, ORYSAT [5]: 0.0

SMILES: COC(=O)Cn1c(=O)n(C)c(=O)n(-c2cc(Oc3ccc(SC)cc3Cl)ccc2[N+](=O)[O-])c1=O [Compound 34, Methyl 3-{5-[2-chloro-4-(methylthio)-phenoxy]-2-nitrophenyl}tetrahydro-5-methyl-2,4,6-trioxo-s-triazine-1(2H)-acetate]
- AMBEL rating ([2]; Rate 0.125 kg/ha): 2.0
- AMBEL rating ([2]; Rate 0.250 kg/ha): 2.0
- AMBEL rating ([2]; Rate 0.500 kg/ha): 2.0
- ECHCG rating ([6]; Rate 0.125 kg/ha): 0.0
- ECHCG rating ([6]; Rate 0.250 kg/ha): 0.0
- ECHCG rating ([6]; Rate 0.500 kg/ha): 0.0
- SETVI rating ([7]; Rate 0.125 kg/ha): 0.0
- SETVI rating ([7]; Rate 0.250 kg/ha): 0.0
- SETVI rating ([7]; Rate 0.500 kg/ha): 0.0
- TRZAWO rating ([8]; Rate 0.125 kg/ha): 2.0
- TRZAWO rating ([8]; Rate 0.250 kg/ha): 2.0
- TRZAWO rating ([8]; Rate 0.500 kg/ha): 2.0
- CHEAL herbicidal rating (CHENOPODIUM ALBUM, L. [4]; Rate 0.125 kg/ha): 0.0
- CHEAL herbicidal rating (CHENOPODIUM ALBUM, L. [4]; Rate 0.250 kg/ha): 0.0
- CHEAL herbicidal rating (CHENOPODIUM ALBUM, L. [4]; Rate 0.500 kg/ha): 0.0
- Herbicidal effect rating, ORYSAT [5]: 0.0
